Results taken from ChEMBL document CHEMBL1150096, “Synthesis and evaluation of 3',5'-di-tert-butyl-4'-hydroxyflavones as potential inhibitors of low density lipoprotein (LDL) oxidation” (J Nat Prod, 1995).

What was measured:
[1] = Antioxidant activity assessed as inhibition of copper-induced human LDL oxidation; type: functional
[2] = Antioxidant activity assessed as inhibition of endothelial cell-induced human LDL oxidation; type: functional, cell-based

Row | Compound | IC50 [1] [nM] | IC50 [2] [nM]
1 | CC(C)(C)c1cc(-c2cc(=O)c3ccc(OCCN4CCOCC4)cc3o2)cc(C(C)(C)C)c1O | 800 | 800
2 | COc1ccc2c(=O)cc(-c3cc(C(C)(C)C)c(OC)c(C(C)(C)C)c3)oc2c1 | > 100000 | 
3 | CC(C)(C)c1cc(-c2cc(=O)c3ccc(OCCCS(=O)(=O)O)cc3o2)cc(C(C)(C)C)c1O | 500 | 
4 | O=c1cc(-c2ccc(O)cc2)oc2cc(O)ccc12 | > 100000 | 
5 | CC(C)(Sc1cc(C(C)(C)C)c(O)c(C(C)(C)C)c1)Sc1cc(C(C)(C)C)c(O)c(C(C)(C)C)c1 [PROBUCOL] | 3000 | 4000
6 | CC(C)(C)c1cc(C(=O)Oc2ccc3c(=O)cc(-c4cc(C(C)(C)C)c(O)c(C(C)(C)C)c4)oc3c2)cc(C(C)(C)C)c1O | 30000 | 70000
7 | CC(C)(C)c1cc(-c2cc(=O)c3ccc(O)cc3o2)cc(C(C)(C)C)c1O | 1000 | 2000
8 | CC(C)(C)c1cc(-c2cc(=O)c3ccc(OCc4ccc(Cl)cc4)cc3o2)cc(C(C)(C)C)c1O | 7000 | 
9 | CCOC(=O)CCCCOc1ccc2c(=O)cc(-c3cc(C(C)(C)C)c(O)c(C(C)(C)C)c3)oc2c1 | 3000 | 
10 | COc1ccc2c(=O)cc(-c3cc(C(C)(C)C)c(O)c(C(C)(C)C)c3)oc2c1 | 1000 | 
11 | VITAMIN E | > 100000 | 4000
12 | CC(C)(C)c1cc(-c2cc(=O)c3ccc(OCC(=O)N4CCN(Cc5ccccc5)CC4)cc3o2)cc(C(C)(C)C)c1O | 3000 | 
13 | CN(C)CCCOc1ccc2c(=O)cc(-c3cc(C(C)(C)C)c(O)c(C(C)(C)C)c3)oc2c1 | 700 | 
14 | CCOC(=O)COc1ccc2c(=O)cc(-c3cc(C(C)(C)C)c(O)c(C(C)(C)C)c3)oc2c1 | 3000 | 800
15 | CC(C)(C)c1cc(-c2cc(=O)c3ccc(OCC(=O)O)cc3o2)cc(C(C)(C)C)c1O [listing 1 of 2 here] | 100 | 
16 | CN(C)CCOc1ccc2c(=O)cc(-c3cc(C(C)(C)C)c(O)c(C(C)(C)C)c3)oc2c1 | 700 | 
17 | CCN(CC)C(=O)COc1ccc2c(=O)cc(-c3cc(C(C)(C)C)c(O)c(C(C)(C)C)c3)oc2c1 | 3000 | 
18 | CC(C)(C)c1cc(-c2cc(=O)c3ccc(OCC(=O)O)cc3o2)cc(C(C)(C)C)c1O [listing 2 of 2 here] | 3000 | 500

Now from value to compound:

Row | IC50 [1] [nM] | IC50 [2] [nM] | Compound
19 | 3000 | 500 | CCOC(=O)C(C)(C)Oc1ccc2c(=O)cc(-c3cc(C(C)(C)C)c(O)c(C(C)(C)C)c3)oc2c1
20 | 5000 | 50000 | CCCCCCOc1ccc2c(=O)cc(-c3cc(C(C)(C)C)c(O)c(C(C)(C)C)c3)oc2c1
21 | > 100000 |  | O=c1cc(-c2ccc(O)cc2)oc2cc(O)cc(O)c12 [APIGENIN]
22 | 3000 | 2500 | CC(C)(C)c1cc(-c2cc(=O)c3ccccc3o2)cc(C(C)(C)C)c1O
23 | 5000 |  | CCCCCOC(=O)COc1ccc2c(=O)cc(-c3cc(C(C)(C)C)c(O)c(C(C)(C)C)c3)oc2c1
24 | 3000 |  | CC(C)(C)c1cc(-c2cc(=O)c3ccc(OCCO)cc3o2)cc(C(C)(C)C)c1O
25 | 100 |  | CC(C)(C)c1cc(-c2cc(=O)c3ccc(OCC(O)CO)cc3o2)cc(C(C)(C)C)c1O (stereo not drawn)
26 | 3000 |  | Cc1cc(C(C)(C)C)c(O)c(C(C)(C)C)c1 [BUTYLATED HYDROXYTOLUENE]
27 | 3000 |  | CC(C)(C)c1cc(-c2cc(=O)c3ccc(OCc4ccc5ccccc5n4)cc3o2)cc(C(C)(C)C)c1O
28 | 3000 |  | CC(C)(C)c1cc(-c2cc(=O)c3ccc(OCC(=O)N4CCCCC4)cc3o2)cc(C(C)(C)C)c1O
